One assay deals with mouse liver mitochondria. Description: Mitochondrial oxygen consumption (Clark-type oxygen electrode). In kind it is biochemical. Particulars: for Effect on basal rate of O2 consumption: 1–100 µM; for PC100 (µM) for Mito. O2 consumption: 100% promoting concentration: doubles the basal rate of oxygen consumption, 30°C. On the procedure: Mitochondria were isolated from mouse liver (ICR; 7–10 week-old females) by differential centrifugation as described previously. Cells were homogenized in a Potter glass homogenizer with H-Buffer (250 mM sucrose, 10 mM Tris-HCl pH 7.4), and centrifuged at 800g for 1 min at 4°C. The supernatant was centrifuged at 6,000g for 5 min, and the resulting pellet, the crude mitochondrial fraction, was suspended in H-Buffer. The suspension was layered over a discontinuous sucrose gradient consisting of 1.1 M and 1.6 M sucrose in a Tris buffer (10 mM Tris-HCl pH 7.4), and centrifuged for 3 h at 90,000g at 4°C. The interface was collected in Tris buffer and centrifuged at 6,000g for 5 min. The resulting pellets were suspended in Tris buffer and used for experiments after confirming the presence of the mitochondrial marker cytochrome c.
Mitochondrial oxygen consumption was determined using a Clark-type oxygen electrode (Strathkelvin Instruments Ltd., North Lanarkshire, Scotland) as described, [39]. The mitochondria-enriched fraction was incubated at 30°C in oxygen measurement buffer (225 mM mannitol, 75 mM sucrose, 10 mM KCl, 0.1 mM EDTA, 3 mM phosphate, 5 mM succinate, 5 mM glutamate, and 20 mM Tris-HCl pH 7.4) in the presence or absence of various concentrations of the DIF-like molecules or CCCP. After recording ‘State 4’ of the respiration reaction, an aliquot of ADP was added to a final concentration of 200 µM to induce ‘State 3’. The PC100 (100% promoting concentration) of each additive was defined as the drug concentration that doubled the basal rate of oxygen consumption during State 3, which was calculated from the dose-response plot for the rate of oxygen consumption (Figure 8).

Assay [1] concerns mitochondria in HeLa cells. Put plainly: Mitochondrial morphology by fluorescence microscopy. In kind it is cell-based, human. Particulars: BODIPY-DIF-3 20 µM 1 day, Bu-DIF-3 5 µM, CCCP 10 µM 3 days. How it is done: For high magnification multi-color imaging, cells were incubated for the appropriate times with 2 ml of DMEM-FBS (HeLa and 3T3-L1) or MEM-α-FBS (LM8) containing various compounds in 35-mm plastic dishes (tissue culture treated µ-Dish; ibidi, Martinsried, Germany). The cells were washed twice with 2 ml of PBS(–), submerged in 2 ml of Hepes buffer (pH 7.4), and observed at room temperature with a Keyence BZ-9000 fluorescence microscope (Osaka, Japan) equipped with an oil immersion 100× lens (CFI Plan Apo VC100XH) and multi-filters that can distinguish four fluorescent probes simultaneously. Original digitized images of z-stack sections were taken at 0.4- µm intervals, which were then treated (haze-reduced) with the Keyence BZ analyzer software (for deconvolution fluorescence imaging), and compiled into 3D images; when 3D images were constructed, nonlinear adjustment was performed to obtain clear (high contrast) images without haze. All color images are presented in pseudo colors.

Assay [2] has as its system HeLa cells. Description: Electron microscopy of organelle morphology. The assay is classed as cell-based, human. Particulars: 3 days, Bu-DIF-3 5 µM, BODIPY-DIF-3 20 µM. How it is done:
HeLa cells were incubated for 3 days with 2 ml DMEM-FBS containing 0.2% DMSO and 5 µM Bu-DIF-3 or 20 µM BODIPY-DIF-3 in 35-mm plastic dishes at 2×10^4 cells/dish. The cells were fixed at 4°C for 30 min with PB (0.1 M phosphate buffer, pH 7.4) containing 2% paraformaldehyde and 2% glutaraldehyde and then with PB containing 2% glutaraldehyde at 4°C overnight. The cell samples were rinsed 3 times with PB for 30 min each, followed by post fixation with 2% OsO4 in PB at 4°C for 1 h. The samples were dehydrated through a graded ethanol (EtOH) series starting with 50% and 70% EtOH for 5 min each at 4°C, then 90% EtOH for 5 min at room temperature, followed by three changes of 100% EtOH for 5 min each at room temperature. The samples were then transferred to a resin (Quetol-812; Nisshin EM Co., Tokyo, Japan) and polymerized at 60°C for 48 h. Ultra-thin (70 nm) sections were cut with an ultramicrotome (ULTRACUT UCT; Leica, Wetzlar, Germany), collected onto copper grids, stained with 2% uranyl acetate at room temperature for 15 min, and then rinsed with distilled water. The sections were then stained with Lead stain solution (Sigma-Aldrich) at room temperature for 3 min. The sections were observed under a transmission electron microscope (JEM-1200Ex; JEOL Ltd., Tokyo, Japan) at an acceleration voltage of 80 kV. Digital images (2048×2048 pixels) were taken with a charge-coupled device camera (VELETA; Olympus Soft Imaging Solutions GmbH, Tokyo, Japan).

For assay [3], the system named is HeLa cells. Put plainly: Withdrawal of BODIPY-DIF-3: recovery of cell growth and mitochondrial morphology. The assay is classed as cell-based, human. Particulars: 20 µM 3 days, then 2 days DMSO. How it is done:
In the assay of the effect of withdrawal of BODIPY-DIF-3 on cell growth (Figure 6A), HeLa cells were incubated for 3 days with 2 ml of DMEM-FBS containing 20 µM BODIPY-DIF-3 in 35-mm tissue culture dishes (Becton Dickinson, Franklin Lakes, NJ, USA) (5×10^3 cells/dish), washed 2 times with 2 ml of PBS(–), and further incubated for 2 days with 2 ml of DMEM-FBS containing 0.2% DMSO or 20 µM BODIPY-DIF-3; meanwhile, control cells were incubated for 5 days with 2 ml of DMEM-FBS containing 0.2% DMSO. Relative cell number was assessed as described above, and all experiments were performed in triplicate.

For the molecule `CCCCCC(=O)c1c(O)cc(OCCCCNC(=O)CCC2=[N+]3C(=Cc4c(C)cc(C)n4[B-]3(F)F)C=C2)c(Cl)c1O` [BODIPY-DIF-3], in the assay on mouse liver mitochondria, the “Effect on basal rate of O2 consumption” value was “dose-dependently promoted” and the “PC100 (µM) for Mito. O2 consumption” value was 25 µM. In assay [1], the Mitochondrial swelling entry is “caused many mitochondria to swell in most cells within 1 day”. For the same molecule, in the assay with HeLa cells [2], the “Lipid bodies in treated cells” value is on record as “many lipid bodies were observed”, the “Number of swollen mitochondria” value is on record as “increase in the number of swollen mitochondria” and the “Total number of mitochondria” value is reported as “tended to cause a decrease”. In addition, the “Reversibility of action after withdrawal at Day 3” value in the assay on HeLa cells [3] is given as “reversible”.
For `CCCCCC(=O)c1c(O)cc(OCCCC)c(Cl)c1O` [Bu-DIF-3, 1-(3-chloro-2,6-dihydroxy-4-butoxyphenyl)hexan-1-one], in the assay on mouse liver mitochondria, the “Effect on basal rate of O2 consumption” value is “dose-dependently promoted” and the “PC100 (µM) for Mito. O2 consumption” value worked out at 1.7 µM. Moreover, the Mitochondrial swelling entry in assay [1] is “the mitochondria in all cells swelled greatly”. For the same molecule, in the assay on HeLa cells [2], the “Lipid bodies in treated cells” value is listed as “many lipid bodies were observed”, the “Number of swollen mitochondria” value was “increase in the number of swollen mitochondria” and the “Total number of mitochondria” value is “tended to cause a decrease”.
For the molecule `N#CC(C#N)=NNc1cccc(Cl)c1` [CCCP, carbonyl cyanide m-chlorophenylhydrazone, reference compound], in the assay on mouse liver mitochondria (0.1–1 µM), the “Effect on mitochondrial O2 consumption” value is “promoted mitochondrial O2 consumption in a dose-dependent manner”. Besides, the “PC100 (µM) for Mito. O2 consumption” value with mouse liver mitochondria was found to be 0.43 µM. Moreover, the Mitochondrial swelling entry in assay [1] was “Mitochondrial swelling was induced in most HeLa cells”.
For the molecule `CCCCCC(=O)c1c(O)cc(OC)c(Cl)c1O` [DIF-3, 1-(3-chloro-2,6-dihydroxy-4-methoxyphenyl)hexan-1-one], in the assay with mouse liver mitochondria, the “Effect on basal rate of O2 consumption” value was “dose-dependently promoted” and the “PC100 (µM) for Mito. O2 consumption” value was found to be 12 µM. Moreover, the Mitochondrial swelling entry in assay [1] is listed as “the mitochondria in all cells swelled greatly”.

Values taken from article PMC3744471, “Mitochondria Are the Target Organelle of Differentiation-Inducing Factor-3, an Anti-Tumor Agent Isolated from Dictyostelium Discoideum” (PLoS ONE, 2013).
